Experimental data published in patent US20140011778A1, “2-METHYLENE-19,23,24-TRINOR-1ALPHA-HYDROXYVITAMIN D3” (Wisconsin Alumni Research Foundation, priority 2011, published 2014).
Read-outs that look alike come from different tables or passages of the source.

Columns and labels:
[1] = molecular target: T1, Full-length recombinant rat receptor (vitamin D receptor) (Rattus norvegicus, UniProt P13053); settings: comparison compound from an earlier filing; read-out: Competitive VDR Binding, Ki; cited from earlier work
T1 construct: Full-length recombinant rat receptor was expressed in E. coli; histidine tag (C); made in house; host or cells: E. coli BL21(DE3) Codon Plus RIL
T1 sequence (P13053 1-423): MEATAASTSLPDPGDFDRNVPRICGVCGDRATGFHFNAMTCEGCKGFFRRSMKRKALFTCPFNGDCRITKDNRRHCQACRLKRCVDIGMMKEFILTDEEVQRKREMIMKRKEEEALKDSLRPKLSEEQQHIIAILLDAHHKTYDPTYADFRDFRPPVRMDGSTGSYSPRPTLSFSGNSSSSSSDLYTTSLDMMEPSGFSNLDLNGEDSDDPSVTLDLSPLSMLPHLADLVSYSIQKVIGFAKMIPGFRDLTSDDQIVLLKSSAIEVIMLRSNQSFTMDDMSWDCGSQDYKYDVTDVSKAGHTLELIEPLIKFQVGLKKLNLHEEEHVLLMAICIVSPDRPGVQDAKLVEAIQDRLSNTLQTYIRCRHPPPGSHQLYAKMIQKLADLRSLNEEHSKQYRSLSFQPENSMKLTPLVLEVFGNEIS

[2] = tested on: Human promyelocytic leukemia (HL60) cells; assay: HL-60 differentiation (nitro blue tetrazolium reduction); format: cell-based; settings: for HL-60 Differentiation (Relative Activity): (value for native hormone)/(value for working example), same assay; for EC50: Homo sapiens, 96 h, HL-60 cells into monocytes, 4 days
Experimental: The study drugs were dissolved in ethanol and the concentrations determined using UV spectrophotometry. Serial dilutions were prepared so that a range of drug concentrations could be tested without changing the final concentration of ethanol (≦0.2%) present in the cell cultures.
Human promyelocytic leukemia (HL60) cells were grown in RPMI-1640 medium containing 10% fetal bovine serum. The cells were incubated at 37° C. in the presence of 5% CO2.
HL60 cells were plated at 1.2×10^5 cells/ml. Eighteen hours after plating, cells in duplicate were treated with the drug. Four days later, the cells were harvested and a nitro blue tetrazolium reduction assay was performed (Collins et al., 1979; J. Exp. Med. 149:969-974). The percentage of differentiated cells was determined by counting a total of 200 cells and recording the number that contained intracellular black-blue formazan deposits. Verification of differentiation to monocytic cells was determined by measuring phagocytic activity (data not shown).

Sprague-Dawley rats = assay: Intestinal calcium transport (everted gut sac); format: in vivo, rat; settings: for serosal calcium to mucosal calcium ratio: rat, at 780 pM (so in the source)
Experimental: Male, weanling Sprague-Dawley rats were placed on Diet 11 (0.47% Ca) diet+AEK oil for one week followed by Diet 11 (0.02% Ca)+AEK oil for 3 weeks. The rats were then switched to a diet containing 0.47% Ca for one week followed by two weeks on a diet containing 0.02% Ca. Dose administration began during the last week on 0.02% calcium diet. Four consecutive intraperitoneal doses were given approximately 24 hours apart. Twenty-four hours after the last dose, blood was collected from the severed neck and the concentration of serum calcium determined as a measure of bone calcium mobilization. The first 10 cm of the intestine was also collected for intestinal calcium transport analysis using the everted gut sac method.

[3] = tested on: 24-hydroxylase (24OHase) gene promoter; assay: In vitro transcription assay (24OHase promoter-luciferase in ROS 17/2.8 cells); format: cell-based; settings: for 24OHase Transcription (Relative Activity): (value for native hormone)/(value for working example), same assay
Experimental: Transcription activity was measured in ROS 17/2.8 (bone) cells that were stably transfected with a 24-hydroxylase (24OHase) gene promoter upstream of a luciferase reporter gene (Arbour et al., 1998). Cells were given a range of doses. Sixteen hours after dosing, the cells were harvested and luciferase activities were measured using a luminometer. RLU=relative luciferase units.

[4] = molecular target: T1, Full-length recombinant rat receptor (vitamin D receptor); assay: Vitamin D receptor competitive binding; settings: recombinant rat VDR, 3H-1,25(OH)2D3 1 nM
Experimental: Full-length recombinant rat receptor was expressed in E. coli BL21(DE3) Codon Plus RIL cells and purified to homogeneity using two different column chromatography systems. The first system was a nickel affinity resin that utilizes the C-terminal histidine tag on this protein. The protein that was eluted from this resin was further purified using ion exchange chromatography (S-Sepharose Fast Flow). Aliquots of the purified protein were quick frozen in liquid nitrogen and stored at −80° C. until use. For use in binding assays, the protein was diluted in TEDK50 (50 mM Tris, 1.5 mM EDTA, pH 7.4, 5 mM DTT, 150 mM KCl) with 0.1% Chaps detergent. The receptor protein and ligand concentration was optimized such that no more than 20% of the added radiolabeled ligand was bound to the receptor.
Unlabeled ligands were dissolved in ethanol and the concentrations determined using UV spectrophotometry (1,25(OH)2D3: molar extinction coefficient=18,200 and λmax=265 nm; Analogs: molar extinction coefficient=42,000 and λmax=252 nm). Radiolabeled ligand (^3H-1,25(OH)2D3, ˜159 Ci/mmole) was added in ethanol at a final concentration of 1 nM.
Radiolabeled and unlabeled ligands were added to 100 mcl of the diluted protein at a final ethanol concentration of ≦10%, mixed and incubated overnight on ice to reach binding equilibrium. […] Total binding was determined from the tubes containing only radiolabeled ligand.

[5] = ROS 17/2.8 cells, luciferase, 16 h, read-out: 24OHase Transcription, EC50

Structure (SMILES) | Ki [1] | HL-60 Differentiation (Relative Activity) [2] | EC50 [2] | serosal calcium to mucosal calcium ratio (Sprague-Dawley rats) | 24OHase Transcription (Relative Activity) [3] | EC50 [3, 5] | Ki [4] | other results
C=C1C(O)CC(=CC=C2CCCC3(C)C2CCC3C(C)CCC)CC1O [2MtrisP, 2-methylene-19-nor-(20S)-1α-hydroxytrishomopregnacalciferol] | 0.075 nM | – | – | – | – | – | – | –
C=C1C(O)CC(=CC=C2CCCC3(C)C2CCC3C(C)CC)CC1O [(20R)-2MbisP, 2-methylene-19-nor-(20R)-1α-hydroxybishomopregnacalciferol] | 0.078 nM | – | – | – | – | – | – | –
C=C1[C@H](O)CC(=C/C=C2\CCC[C@]3(C)[C@@H]([C@H](C)CC(C)C)CC[C@@H]23)C[C@H]1O [RMB, (20R)-2-methylene-19,23,24-trinor-1α-hydroxyvitamin D3] | – | 0.0005 | 6 µM | 0.9 | 0.003 | 100 nM | 4 nM | less active than (20R)-2MbisP in differentiation of HL-60 cells ([2]; ratio of relative activities 0.18/0.0005): approximately 360 times; less active than (20R)-2MbisP in hydroxylase transcription ([3]; ratio of relative activities 0.05/0.003): more than 16 times
C=C1[C@H](O)CC(=C/C=C2\CCC[C@]3(C)[C@@H]([C@@H](C)CC(C)C)CC[C@@H]23)C[C@H]1O [SMB, (20S)-2-methylene-19,23,24-trinor-1α-hydroxyvitamin D3] | – | 0.08 | 0.04 µM | – | 0.04 | 8 nM | 0.4 nM | less active than 2MtrisP in HL-60 differentiation, normalized against native hormone ([2]; ratio of relative activities 1.2/0.08): ≈ 15; intestinal calcium transport activity lower than that of the native hormone (Sprague-Dawley rats; 7020 pmol SMB similar to 87 pmol native hormone): approximately 80 times; EC50 ([3]; FIG. 3, read-out: EC50 with respect to increasing transcription of the 24-hydroxylase gene): 8000 nM
C=C1/C(=C\C=C2/CCC[C@]3(C)[C@@H]([C@H](C)CCCC(C)(C)O)CC[C@@H]23)C[C@@H](O)C[C@@H]1O [native hormone, 1α,25-dihydroxyvitamin D3, reference compound] | – | – | – | 4.1 | – | – | – | –
